In patent publication US20240269105A1, “USE OF SGLT-2 INHIBITORS FOR THE PREVENTION AND/OR TREATMENT OF HYPERTENSION IN NON-HUMAN MAMMALS” (BOEHRINGER INGELHEIM VETMEDICA GMBH, priority 2021, published 2024):

Columns and labels:
[1] = test system: human patients suffering from diabetes mellitus type II; details: baseline to week 12; empagliflozin 10 mg and 25 mg groups vs placebo; N=825; 'up to'; cited from earlier work
[2] = test system: dogs previously diagnosed with high systolic blood pressure; assay: Clinical field study (Dogs): systolic blood pressure; type: in vivo, dog; details: dogs (n=5-10), 4 weeks of treatment, open label
Description: (§1) In a clinical field study, the effect of velagliflozin on systolic blood pressure administered to dogs (n=5-10) previously diagnosed with high systolic blood pressure, is evaluated over a period of 1 month. Systolic blood pressure measurements are performed in accordance with the ACVIM consensus statement (Ref. 3). Systolic blood pressure is measured before treatment start and during weekly consecutive visits (4 weeks of treatment). The study is an open label study (unmasked). The data of this field trial confirm an average reduction of systolic blood pressure of about 5-10 mmHg.

[3] = test system: cats previously diagnosed with high systolic blood pressure; assay: Clinical field study (Cats): systolic blood pressure; type: in vivo, cat; details: cats (n=5-10), 4 weeks of treatment, open label
Description: as §1, with “cats” for “dogs”

SMILES	placebo-subtracted mean difference of mean 24-hour systolic BP [1]	average reduction of systolic blood pressure [2]	average reduction of systolic blood pressure [3]
OC[C@H]1O[C@@H](c2ccc(Cl)c(Cc3ccc(O[C@H]4CCOC4)cc3)c2)[C@H](O)[C@@H](O)[C@@H]1O [empagliflozin, Empagliflozin]	up to −4.16 mmHg		
N#Cc1ccc([C@@H]2O[C@H](CO)[C@@H](O)[C@H](O)[C@H]2O)cc1Cc1ccc(C2CC2)cc1 [velagliflozin, Velagliflozin]		5-10 mmHg	5-10 mmHg
